# In US9834550B2, “Pyridopyrimidinone compounds for modulating the catalytic activity of histone lysine demethylases (KDMs)” (Dong-A Socio Holdings Co., Ltd., priority 2014, dated 2017):
# Target: T1, Recombinant human JARID1B/KDM5B (Homo sapiens, UniProt Q9UGL1)
# T1 construct: purchased Active Motif 31432; host or cells: Sf9 insect cells
# Assay: LANCE Ultra TR-FRET demethylase assay with FLAG-tagged JARID1B
# Type: biochemical
# Details: 100 nM compound; 500 nM biotinylated H3K4me3 peptide substrate
# Outline: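 Sf9-expressed N-FLAG full-length JARID1B (10–30 nM) preincubated 5 min with compound at 20, 1 or 0.1 uM (1% DMSO), then 500 nM biotin-H3K4me3 peptide, 500 uM 2-OG, 25 uM Fe(II), 2 mM ascorbate added; 30 min at room temperature in Hepes pH 7.5. H3K4me2/1 product read by TR-FRET 665/590 ratio.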
# T1 sequence (Q9UGL1 whole entry): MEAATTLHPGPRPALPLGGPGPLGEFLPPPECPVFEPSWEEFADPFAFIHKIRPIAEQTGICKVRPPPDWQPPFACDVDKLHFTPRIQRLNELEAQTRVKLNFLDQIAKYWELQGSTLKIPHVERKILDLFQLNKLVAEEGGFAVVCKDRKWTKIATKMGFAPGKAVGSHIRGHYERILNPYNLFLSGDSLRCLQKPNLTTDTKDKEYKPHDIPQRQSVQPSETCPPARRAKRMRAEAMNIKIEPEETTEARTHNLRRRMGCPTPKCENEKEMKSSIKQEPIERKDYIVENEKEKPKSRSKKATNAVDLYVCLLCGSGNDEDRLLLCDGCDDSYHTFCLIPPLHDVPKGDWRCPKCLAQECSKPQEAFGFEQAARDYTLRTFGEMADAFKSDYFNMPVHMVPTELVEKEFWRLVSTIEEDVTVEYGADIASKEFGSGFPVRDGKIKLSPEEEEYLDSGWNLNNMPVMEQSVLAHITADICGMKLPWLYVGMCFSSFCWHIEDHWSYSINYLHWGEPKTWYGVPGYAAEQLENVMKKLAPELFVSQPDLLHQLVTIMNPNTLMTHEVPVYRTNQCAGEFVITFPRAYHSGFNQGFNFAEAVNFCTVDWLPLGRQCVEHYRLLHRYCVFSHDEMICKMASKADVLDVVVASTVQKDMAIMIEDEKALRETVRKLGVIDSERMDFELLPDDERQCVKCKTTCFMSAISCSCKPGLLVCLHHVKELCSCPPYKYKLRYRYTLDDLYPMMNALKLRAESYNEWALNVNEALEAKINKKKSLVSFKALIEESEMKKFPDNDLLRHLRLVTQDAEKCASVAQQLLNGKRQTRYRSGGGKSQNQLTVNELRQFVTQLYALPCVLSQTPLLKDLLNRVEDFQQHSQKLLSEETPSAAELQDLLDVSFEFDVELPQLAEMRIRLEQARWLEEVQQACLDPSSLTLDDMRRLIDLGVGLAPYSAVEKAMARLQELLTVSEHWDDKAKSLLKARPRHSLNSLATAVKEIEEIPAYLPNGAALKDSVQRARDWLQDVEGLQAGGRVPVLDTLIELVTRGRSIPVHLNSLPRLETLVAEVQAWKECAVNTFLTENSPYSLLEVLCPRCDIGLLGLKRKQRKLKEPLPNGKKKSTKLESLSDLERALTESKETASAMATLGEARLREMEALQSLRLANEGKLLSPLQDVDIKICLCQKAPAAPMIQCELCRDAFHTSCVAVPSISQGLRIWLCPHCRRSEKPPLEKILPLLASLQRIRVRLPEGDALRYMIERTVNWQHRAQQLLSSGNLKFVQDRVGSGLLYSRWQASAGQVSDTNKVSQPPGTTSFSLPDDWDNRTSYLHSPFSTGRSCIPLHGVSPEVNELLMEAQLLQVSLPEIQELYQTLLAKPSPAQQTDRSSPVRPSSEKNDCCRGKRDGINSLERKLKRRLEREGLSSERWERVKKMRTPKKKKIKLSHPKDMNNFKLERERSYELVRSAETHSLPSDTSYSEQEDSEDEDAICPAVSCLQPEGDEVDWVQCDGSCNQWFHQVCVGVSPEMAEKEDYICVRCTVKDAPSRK
row,SMILES,inhibition at 0.1 µM [%]
1,"O=c1[nH]c(COc2ccc(F)c(Cl)c2)nc2c(CNCCN3CCOCC3)nccc12 [Example 164, 2-((3-chloro-4-fluorophenoxy)methyl)-8-(((2-morpholinoethyl)amino)methyl)pyrido[3,4-d]pyrimidin-4(3H)-one]",20 to 50
2,"O=c1[nH]c(COc2ccc(F)c(Cl)c2)nc2c(CNCC3CCN(C4CCCC4)CC3)nccc12 [Example 169, 2-((3-chloro-4-fluorophenoxy)methyl)-8-((((1-cyclopentylpiperidin-4-yl)methyl)amino)methyl)pyrido[3,4-d]pyrimidin-4(3H)-one]",> 50
3,"COc1cc(OCc2nc3cnccc3c(=O)[nH]2)cc(OC)c1OC [Example 39, 2-((3,4,5-trimethoxyphenoxy)methyl)pyrido[3,4-d]pyrimidin-4(3H)-one]",< 20
4,"O=c1[nH]c(COc2ccc(Cl)cc2Cl)nc2c(CNCC3CCNCC3)nccc12 [Example 114, 2-((2,4-dichlorophenoxy)methyl)-8-(((piperidin-4-ylmethyl)amino)methyl)pyrido[3,4-d]pyrimidin-4(3H)-one]",20 to 50
5,"CN(C)C1CCN(C(=O)CNCc2nccc3c(=O)[nH]c(COc4ccc(F)c(Cl)c4)nc23)C1 (stereo not drawn) [Example 237, 2-((3-chloro-4-fluorophenoxy)methyl)-8-(((2-(3-(dimethylamino)pyrrolidin-1-yl)-2-oxoethyl)amino)methyl)pyrido[3,4-d]pyrimidin-4(3H)-one]",> 50
6,"CC(Oc1ccc(Cc2ccccc2)cc1)c1nc2c(CNCC3CCNCC3)nccc2c(=O)[nH]1 (stereo not drawn) [Example 212, 2-(1-(4-benzylphenoxy)ethyl)-8-(((piperidin-4-ylmethyl)amino)methyl)pyrido[3,4-d]pyrimidin-4(3H)-one]",20 to 50
7,"O=c1[nH]c(COc2ccc(F)c(Cl)c2)nc2c(CNCC3CCOCC3)nccc12 [Example 161, 2-((3-chloro-4-fluorophenoxy)methyl)-8-((((tetrahydro-2H-pyran-4-yl)methyl)amino)methyl)pyrido[3,4-d]pyrimidin-4(3H)-one]",< 20
8,"O=C(CNCc1nccc2c(=O)[nH]c(COc3ccc(F)c(Cl)c3)nc12)N1CCCCC1 [Example 224, 2-((3-chloro-4-fluorophenoxy)methyl)-8-(((2-oxo-2-(piperidin-1-yl)ethyl)amino)methyl)pyrido[3,4-d]pyrimidin-4(3H)-one]",20 to 50
9,"CC(Oc1ccc(Cc2ccccc2)cc1)c1nc2c(CNCC3CCN(C)CC3)nccc2c(=O)[nH]1 (stereo not drawn) [Example 211, 2-(1-(4-benzylphenoxy)ethyl)-8-((((1-methylpiperidin-4-yl)methyl)amino)methyl)pyrido[3,4-d]pyrimidin-4(3H)-one]",< 20
10,"O=C(NCCN1CCOCC1)c1cccc(OCc2nc3cnccc3c(=O)[nH]2)c1 [Example 40, N-(2-morpholinoethyl)-3-((4-oxo-3,4-dihydropyrido[3,4-d]pyrimidin-2-yl)methoxy)benzamide]",< 20
11,"CC(c1ccccc1)c1ccc(OCc2nc3c(CNCC4CCNCC4)nccc3c(=O)[nH]2)cc1 (stereo not drawn) [Example 141, 2-((4-(1-phenylethyl)phenoxy)methyl)-8-(((piperidin-4-ylmethyl)amino)methyl)pyrido[3,4-d]pyrimidin-4(3H)-one]",20 to 50
12,"CCN1CCC(CNCc2nccc3c(=O)[nH]c(COc4ccc(Cc5ccccc5)cc4)nc23)C1 (stereo not drawn) [Example 142, 2-((4-benzylphenoxy)methyl)-8-((((1-ethylpyrrolidin-3-yl)methyl)amino)methyl)pyrido[3,4-d]pyrimidin-4(3H)-one]",> 50
13,"CN1CCC(CNCc2nccc3c(=O)[nH]c(C4CCOC4)nc23)CC1 (stereo not drawn) [Example 196, 8-((((1-methylpiperidin-4-yl)methyl)amino)methyl)-2-(tetrahydrofuran-3-yl)pyrido[3,4-d]pyrimidin-4(3H)-one]",< 20
14,"Cc1cccc(CCNCc2nccc3c(=O)[nH]c(COc4ccc(F)c(Cl)c4)nc23)n1 [Example 184, 2-((3-chloro-4-fluorophenoxy)methyl)-8-(((2-(6-methylpyridin-2-yl)ethyl)amino)methyl)pyrido[3,4-d]pyrimidin-4(3H)-one]",< 20
15,"N#Cc1ccccc1OCc1nc2c(CNCC3CCNCC3)nccc2c(=O)[nH]1 [Example 128, 2-((4-oxo-8-(((piperidin-4-ylmethyl)amino)methyl)-3,4-dihydropyrido[3,4-d]pyrimidin-2-yl)methoxy)benzonitrile]",20 to 50
16,"C[C@H](Oc1ccc(F)c(Cl)c1)c1nc2c(CNCC3CCN(C)CC3)nccc2c(=O)[nH]1 [Example 220, (S)-2-(1-(3-chloro-4-fluorophenoxy)ethyl)-8-((((1-methylpiperidin-4-yl)methyl)amino)methyl)pyrido[3,4-d]pyrimidin-4(3H)-one]",> 50
17,"CN1CCC(N2CCC(CNCc3nccc4c(=O)[nH]cnc34)CC2)CC1 [Example 97, 8-((((1′-methyl-[1,4′-bipiperidin]-4-yl)methyl)amino)methyl)pyrido[3,4-d]pyrimidin-4(3H)-one]",20 to 50

row,SMILES,inhibition at 0.1 µM [%]
1,"O=C(CNCc1nccc2c(=O)[nH]c(COc3ccc(F)c(Cl)c3)nc12)N1CCOCC1 [Example 225, 2-((3-chloro-4-fluorophenoxy)methyl)-8-(((2-morpholino-2-oxoethyl)amino)methyl)pyrido[3,4-d]pyrimidin-4(3H)-one]",20 to 50
2,"O=c1[nH]c(COc2cccc(CNC3CCOCC3)c2)nc2cnccc12 [Example 44, 2-((3-(((tetrahydro-2H-pyran-4-yl)amino)methyl)phenoxy)methyl)pyrido[3,4-d]pyrimidin-4(3H)-one]",< 20
3,"O=C1c2cccnc2CN1CCCNCc1nccc2c(=O)[nH]c(COc3ccc(F)c(Cl)c3)nc12 [Example 185, 2-((3-chloro-4-fluorophenoxy)methyl)-8-(((3-(5-oxo-5,7-dihydro-6H-pyrrolo[3,4-b]pyridin-6-yl)propyl)amino)methyl)pyrido[3,4-d]pyrimidin-4(3H)-one]",20 to 50
4,"CN(C)C(=O)c1ccc(CNCc2nccc3c(=O)[nH]c(COc4ccc(F)c(Cl)c4)nc23)o1 [Example 174, 5-((((2-((3-chloro-4-fluorophenoxy)methyl)-4-oxo-3,4-dihydropyrido[3,4-d]pyrimidin-8-yl)methyl)amino)methyl)-N,N-dimethylfuran-2-carboxamide]",20 to 50
5,"O=c1[nH]c(COc2ccccn2)nc2c(CNCC3CCNCC3)nccc12 [Example 133, 8-(((piperidin-4-ylmethyl)amino)methyl)-2-((pyridin-2-yloxy)methyl)pyrido[3,4-d]pyrimidin-4(3H)-one]",< 20
6,"O=c1[nH]c(COc2ccc(Cc3ccccc3)cc2)nc2c(CNCC3CCNCC3)nccc12 [Example 121, 2-((4-benzylphenoxy)methyl)-8-(((piperidin-4-ylmethyl)amino)methyl)pyrido[3,4-d]pyrimidin-4(3H)-one]",> 50
7,"O=c1[nH]c(COc2cc(Cl)ccc2Cl)nc2c(CNCC3CCNCC3)nccc12 [Example 115, 2-((2,5-dichlorophenoxy)methyl)-8-(((piperidin-4-ylmethyl)amino)methyl)pyrido[3,4-d]pyrimidin-4(3H)-one]",20 to 50
8,"O=c1[nH]c(COc2ccc(F)c(Cl)c2)nc2c(CNCc3ncco3)nccc12 [Example 179, 2-((3-chloro-4-fluorophenoxy)methyl)-8-(((oxazol-2-ylmethyl)amino)methyl)pyrido[3,4-d]pyrimidin-4(3H)-one]",20 to 50
9,"O=c1[nH]c(COc2ccc(F)c(Cl)c2)nc2c(CNC[C@H]3CCNC3)nccc12 [Example 158, (S)-2-((3-chloro-4-fluorophenoxy)methyl)-8-(((pyrrolidin-3-ylmethyl)amino)methyl)pyrido[3,4-d]pyrimidin-4(3H)-one]",> 50
10,"O=c1[nH]c(COc2ccc(Cl)cc2)nc2c(CNCC3CCN(Cc4ccccc4)CC3)nccc12 [Example 107, 8-((((1-benzylpiperidin-4-yl)methyl)amino)methyl)-2-((4-chlorophenoxy)methyl)pyrido[3,4-d]pyrimidin-4(3H)-one]",> 50
11,"CC(NCc1nccc2c(=O)[nH]cnc12)C1CCNCC1 (stereo not drawn) [Example 94, 8-(((1-(piperidin-4-yl)ethyl)amino)methyl)pyrido[3,4-c]pyrimidin-4(3H)-one]",< 20
12,"CN1CCC(CNCc2nccc3c(=O)[nH]c(COCc4ccccc4Cl)nc23)CC1 [Example 210, 2-(((2-chlorobenzyl)oxy)methyl)-8-((((1-methylpiperidin-4-yl)methyl)amino)methyl)pyrido[3,4-d]pyrimidin-4(3H)-one]",> 50
13,"O=c1[nH]c(COc2cccc(CNCCN3CCOCC3)c2)nc2cnccc12 [Example 45, 2-((3-(((2-morpholinoethyl)amino)methyl)phenoxy)methyl)pyrido[3,4-d]pyrimidin-4(3H)-one]",< 20
14,"CN1CCN(C(=O)CNCc2nccc3c(=O)[nH]c(COc4ccc(F)c(Cl)c4)nc23)CC1 [Example 226, 2-((3-chloro-4-fluorophenoxy)methyl)-8-(((2-(4-methylpiperazin-1-yl)-2-oxoethyl)amino)methyl)pyrido[3,4-d]pyrimidin-4(3H)-one]",> 50
15,"O=C(NCc1nccc2c(=O)[nH]c(COc3ccc(F)c(Cl)c3)nc12)C1CCCNC1 (stereo not drawn) [Example 241, N-((2-((3-chloro-4-fluorophenoxy)methyl)-4-oxo-3,4-dihydropyrido[3,4-d]pyrimidin-8-yl)methyl)piperidine-3-carboxamide]",< 20
16,"O=c1[nH]c(COc2ccc(Cc3ccccc3)cc2)nc2c(CNC[C@H]3CCNC3)nccc12 [Example 150, (S)-2-((4-benzylphenoxy)methyl)-8-(((pyrrolidin-3-ylmethyl)amino)methyl)pyrido[3,4-d]pyrimidin-4(3H)-one]",> 50
